# Data from patent US10830772B2, “Detection method and kit” (The European Union, represented by the European Commission, priority 2015, dated 2020).
# Test system: AhR2 from zebrafish
# Test: Fluorescence binding of the ligand probe to recombinant AhR protein (excitation 280 nm, emission 450 nm)
# From the text: The inventors expressed the encoding gene sequence for the AhR2 from zebrafish in Escherichia coli cells to produce the high yield of a 600 amino acid recombinant protein. The protein was purified by using Histidine tag affinity column. The protocol used allowed to obtain a good yield of pure protein that is correctly folded.
# The inventors developed an assay for the Aryl Hydrocarbon Receptor binding activity as an alternative to known methods and investigated which molecules are the most suitable for building a competitive binding assay as in vitro ligands, and to make these molecules fluorescent or more fluorescent. […] The same concentration of ethyl 5,11-dihydroindolo[3,2-b]carbazole-6-carboxylate in aqueous buffer environment has a very low fluorescence signal (FIG. 1, bottom line at 328 nm). […] Indeed if ethyl 5,11-dihydroindolo[3,2-b]carbazole-6-carboxylate is a ligand of AhR it moves from an aqueous environment (buffer) to a more hydrophobic environment (hydrophobic internal binding site of the AhR receptor), causing the increase in fluorescence emission at 450 nm.
structure (smiles),measurement,setting,value
"CCOC(=O)c1c2[nH]c3ccccc3c2cc2[nH]c3ccccc3c12 [ethyl 5,11-dihydroindolo[3,2-b]carbazole-6-carboxylate]",fluorescence emission on addition to the AhR (binding into the active site),"excited at 280 nm, buffer environment, FIG. 1",causes the appearance of an emission peak with maximum at 450 nm
same,binding affinity to AhR,"result in words, suitability for competitive binding assays","high enough to allow the competition of other compounds to the receptor, yet not too high"
